According to patent US20220315624A1, “THIOSTREPTON ANALOGS AND METHODS OF MAKING AND USING SAME” (YALE UNIVERSITY, priority 2019, published 2022):
In brackets after ≈: the same amount, converted by molar mass.

Key:
[1] = Aqueous solubility analysis in MOPS buffer; type: physicochemical; settings: aqueous 10 mM MOPS buffer, thermodynamic from solid; after 24 hours in 10 mM aqueous MOPS buffer, pH 7.2
Experimental: A 2 dram vial was loaded with ˜0.5 mg of a thiostrepton derivative and suspended in ˜4 mL of aqueous 10 mM MOPS buffer (pKa 7.2). The suspension was stirred vigorously for 24 h to ensure equilibration, then filtered through a […] centrifuge filtration unit. A 3.0 mL aliquot was concentrated, and the dried residue was diluted with 0.30 mL of 1:1 1,4-dioxane/H2O (10× original concentration necessitated by detection limits). The total UV absorbance (200-300 nm) was measured in triplicate by UPLC runs with a photodiode array detector. A calibration curve for each compound was created using data points from 3 trials each of concentrations in 1:1 1,4-dioxane/H2O ranging from […]. These concentrations were plotted against their respective average absorbances. The experimental concentration of each compound was calculated by dividing the found μg/mL value by the residue concentration factor of 10 to yield the actual solubility value.

E. coli ATCC 25922 = assay: MIC broth microdilution; type: cell-based; settings: Escherichia coli, ATCC25922; E. coli ATCC 25922; CAMHB; read-out: MIC
Experimental: (§1) Twenty-four test agents were shipped to Micromyx and stored at −20° C. until assayed. The compounds were dissolved in 100% DMSO at 6.46 mg/mL prior to testing. Comparator drugs were supplied by Micromyx and were handled as described below:
(§2) The test organisms for the assay were recent clinical isolates or reference strains acquired from the American Type Culture Collection (ATCC; Manassas, Va.). Upon receipt, the isolates were streaked onto Trypticase Soy Agar II+5% sheep blood (TSAB). Colonies were harvested from the plates and a cell suspension was prepared in Trypticase Soy Broth containing cryoprotectant. Aliquots were then frozen at −80° C. Prior to the assay, the frozen seeds of all bacterial isolates to be tested were thawed and streaked for isolation onto TSAB (BD/BBL, Sparks, Md.; Lot No. 9011894), and were incubated overnight at 35° C.
(§3) The test medium for all isolates was cation-adjusted Mueller Hinton broth (CAMHB; BD/BBL; Lot No. 8190586). CAMHB (Cation Adjusted Mueller Hinton Broth) was supplemented with 3% (v/v) lysed horse blood (LHB; Hemostat, Dixon, Calif.; Lot No. 474990) for the testing of streptococci.
(§4) MIC values were determined using a broth microdilution method as recommended by CLSI. Automated liquid handlers (Multidrop 384, Labsystems, Helsinki, Finland; Biomek 2000 and Biomek F/X, Beckman Coulter, Fullerton Calif.) were used to conduct serial dilutions and make liquid transfers.
(§5) The wells of standard 96-well microdilution plates (Costar 3795, Corning Inc., Corning, N.Y.) were filled with 150 μL of the appropriate diluent in columns 2-12 on the Multidrop 384 (DMSO for the thiostrepton analogs, deionized H2O for vancomycin and ceftazidime). These plates were used to prepare the drug “mother plate” which provided the serial drug dilutions for the replicate “daughter plates”. The compounds (300 μL) were dispensed at 101× the highest concentration to be tested into the appropriate row of the “mother plate”. The Biomek 2000 was used to transfer 150 μL of each stock solution from the wells in Column 1 of the mother plate to make ten subsequent 2-fold serial dilutions. The wells of Column 12 contained no drug and served as the organism growth control wells. The daughter plates were loaded with 190 μL of test medium using the Multidrop 384.
(§6) The daughter plates were prepared on the Biomek F/X instrument which transferred […] of drug solution from each well of the mother plate to each corresponding well of each daughter plate in a single step. The wells of the daughter plates ultimately contained 190 μL of media, 2 μL of drug solution, and 10 μL of inoculum prepared as described below. The final concentration of DMSO (if used as a solvent) in the test well was 1%.
(§7) A standardized inoculum of each organism was prepared per CLSI methods. A suspension of organisms from a fresh plate was prepared in CAMHB to equal the turbidity of a 0.5 McFarland standard. The suspensions were diluted 1:20 in CAMHB, or in the case of streptococci CAMHB with LHB. The inoculum for each organism was dispensed into sterile reservoirs divided by length (Beckman Coulter), and the Biomek 2000 was used to inoculate the plates. Daughter plates were placed on the Biomek 2000 work surface reversed so that inoculation took place from low to high drug concentration. The Biomek 2000 delivered 10 μL of standardized inoculum into each well. These dilutions yielded a final cell concentration in the daughter plates of approximately 5.0×10^5 CFU/mL.
(§8) Plates were stacked 3 high, covered with a lid on the top plate, placed in plastic bags, and incubated at 35° C. for 16-20 hr for all organisms except streptococci which were incubated for 20-24 hr. Following incubation, the microplates were removed from the incubator and viewed from the bottom using a plate viewer. The MIC was read and recorded as the lowest concentration of drug that inhibited visible growth of the organism. […]

[2] = system: E. faecalis ATCC 29212 VSE; assay: MIC broth microdilution; type: cell-based; settings: Enterococcus faecalis, ATCC29212; E. faecalis ATCC 29212 VSE; CAMHB; read-out: MIC
Experimental: as §1, §2, §3, §4, §5, §6, §7, §8

E. faecalis MMX 486 VRE = assay: MIC broth microdilution; type: cell-based; settings: Enterococcus faecalis; E. faecalis MMX 486 VRE; CAMHB; read-out: MIC
Experimental: as §1, §2, §3, §4, §5, §6, §7, §8

E. faecium MMX 485 VRE = assay: MIC broth microdilution; type: cell-based; settings: Enterococcus faecium; E. faecium MMX 485 VRE; CAMHB; read-out: MIC
Experimental: as §1, §2, §3, §4, §5, §6, §7, §8

E. faecium MMX 708 VSE = assay: MIC broth microdilution; type: cell-based; settings: Enterococcus faecium, MMX708VSE; E. faecium MMX 708 VSE; CAMHB; read-out: MIC
Experimental: as §1, §2, §3, §4, §5, §6, §7, §8

[3] = system: S. aureus ATCC 29213 MSSA; assay: MIC broth microdilution; type: cell-based; settings: Staphylococcus aureus; S. aureus ATCC 29213 MSSA; CAMHB; read-out: MIC
Experimental: as §1, §2, §3, §4, §5, §6, §7, §8

S. aureus MMX 8088 MRSA = assay: MIC broth microdilution; type: cell-based; settings: Staphylococcus aureus; S. aureus MMX 8088 MRSA; CAMHB; read-out: MIC
Experimental: as §1, §2, §3, §4, §5, §6, §7, §8

[4] = system: S. pneumoniae ATCC 49619 PISP; assay: MIC broth microdilution; type: cell-based; settings: Streptococcus pneumoniae, ATCC49619, 20 h; S. pneumoniae ATCC 49619 PISP; CAMHB with 3% lysed horse blood; read-out: MIC
Experimental: as §1, §2, §3, §4, §5, §6, §7, §8

S. pyogenes ATCC 19615 = assay: MIC broth microdilution; type: cell-based; settings: Streptococcus pyogenes, ATCC19615, 20 h; S. pyogenes ATCC 19615; CAMHB with 3% lysed horse blood; read-out: MIC
Experimental: as §1, §2, §3, §4, §5, §6, §7, §8

S. aureus isolates = assay: MIC broth microdilution, S. aureus isolates; type: cell-based; settings: Staphylococcus aureus; across MSSA and MRSA isolates; read-out: MIC values against S. aureus isolates
Experimental: as §1, §2, §3, §4, §5, §6, §7, §8

[5] = Un-inoculated solubility control plate (drug precipitation); type: physicochemical; settings: at 64 μg/mL in CAMHB
[6] = system: E. faecalis and E. faecium; assay: MIC broth microdilution, summary over enterococci; type: cell-based; settings: across the evaluated enterococci, VSE and VRE; read-out: MIC values against E. faecalis and E. faecium
Experimental: as §1, §2, §3, §4, §5, §6, §7, §8

Gram-positive cocci = assay: MIC broth microdilution, overall summary; type: cell-based; settings: summary of MIC testing
Experimental: as §1, §2, §3, §4, §5
The daughter plates were prepared on the Biomek F/X instrument which transferred […] of drug solution from each well of the mother plate to each corresponding well of each daughter plate in a single step. […]
as §8, with “Following incubation, the microplates were removed from the incubator and viewed from the bottom using a plate viewer.” left out

solubility at 24 h [1] | MIC (E. coli ATCC 25922) | MIC [2] | MIC (E. faecalis MMX 486 VRE) | MIC (E. faecium MMX 485 VRE) | MIC (E. faecium MMX 708 VSE) | MIC [3] | MIC (S. aureus MMX 8088 MRSA) | MIC [4] | MIC (S. pyogenes ATCC 19615) | MIC (S. aureus isolates) | Precipitation in CAMHB [5] | MIC [6] | SMILES | Activity among the evaluated analogs / against evaluated Gram-positive cocci (summary in words) (Gram-positive cocci)
16.2 µg/mL (≈ 9.26 µM) | > 64 µg/mL | 0.5 µg/mL (≈ 0.286 µM) | 1 µg/mL (≈ 0.571 µM) | 0.25 µg/mL (≈ 0.143 µM) | 1 µg/mL (≈ 0.571 µM) | 0.5 µg/mL (≈ 0.286 µM) | 0.5 µg/mL (≈ 0.286 µM) | 0.004 µg/mL (≈ 0.00229 µM) | 0.004 µg/mL (≈ 0.00229 µM) | 0.25 to 0.5 µg/mL (≈ 0.143 to 0.286 µM) | distinct precipitation | – | C=C(NC(=O)c1csc(C2=N[C@@H]3c4csc(n4)[C@H]4NC(=O)c5csc(n5)[C@H]([C@](C)(O)[C@@H](C)O)NC(=O)C5CSC(=N5)/C(=C/C)NC(=O)[C@H]([C@@H](C)O)NC(=O)c5csc(n5)[C@]3(CC2)NC(=O)[C@H](C)NC(=O)C(=C)NC(=O)[C@H](C)NC(=O)[C@H]([C@@H](C)CC)N[C@@H]2C=Cc3c([C@H](C)O)cc(nc3[C@H]2O)C(=O)O[C@@H]4C)n1)C(=O)NC(=CNC(=O)C(C)C)C(N)=O [RJS-04] | –
< 1 µg/mL | > 64 µg/mL | 0.25 µg/mL (≈ 0.137 µM) | 0.25 µg/mL (≈ 0.137 µM) | 0.12 µg/mL (≈ 0.066 µM) | 0.25 µg/mL (≈ 0.137 µM) | 0.25 µg/mL (≈ 0.137 µM) | 0.5 µg/mL (≈ 0.275 µM) | < 0.001 µg/mL | 0.002 µg/mL (≈ 0.0011 µM) | 0.25 to 0.5 µg/mL (≈ 0.137 to 0.275 µM) | distinct precipitation | 0.12 to 0.25 µg/mL (≈ 0.066 to 0.137 µM) | C=C(NC(=O)c1csc(C2=N[C@@H]3c4csc(n4)[C@H]4NC(=O)c5csc(n5)[C@H]([C@](C)(O)[C@@H](C)O)NC(=O)C5CSC(=N5)/C(=C/C)NC(=O)[C@H]([C@@H](C)O)NC(=O)c5csc(n5)[C@]3(CC2)NC(=O)[C@H](C)NC(=O)C(=C)NC(=O)[C@H](C)NC(=O)[C@H]([C@@H](C)CC)N[C@@H]2C=Cc3c([C@H](C)O)cc(nc3[C@H]2O)C(=O)O[C@@H]4C)n1)C(=O)NC(=CNC(=O)c1ccc(Cl)cc1)C(N)=O [RJS-09] | most activity
